As usually defined, the Ki is the equilibrium dissociation constant of an inhibitor or competing ligand from its target.

The test concerns the target DNA-PK (Homo sapiens, UniProt P78527). Description: DNA-PK Inhibition Assay (standard radiometric kinase assay, 33P-ATP, peptide substrate). The test is classed as biochemical. The conditions noted are these: radiometric assay, approximately 6 nM DNA-PK, 100 μM ATP, 45 min; fit to competitive tight-binding inhibition; read-out: Ki for the inhibition of DNA-PK. The essentials: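 Radiometric transfer of 33P from ATP (100 μM) to peptide substrate (0.8 mg/mL) by about 6 nM DNA-PK with 10 μg/mL sheared dsDNA, pH 7.5 HEPES/MgCl2, 45 min, phosphoric acid quench, filter capture and scintillation counting. Ki fitted to a competitive tight-binding inhibition model.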
Turning to `FC(F)(F)c1cncc(N[C@H]2CC[C@@H](Oc3cc(N4CCOCC4)cc4nccnc34)CC2)c1` [Compound 429], the Ki was under 100 nM.
Next, `COC(c1ccc(N[C@H]2CC[C@@H](Oc3cc(N4CCOCC4)cc4nccnc34)CC2)nc1)C(F)(F)F` (some centres unmarked) [Compound 629]: under 100 nM.
Then `Cc1cnc2cc(N3CCOCC3)cc(O[C@H]3CC[C@@H](Nc4ncc(C5CCN(C)CC5)cn4)CC3)c2n1` [Compound 544], with under 100 nM.
Then `Cc1ccncc1N[C@H]1CC[C@@H](Oc2cc(N3CCOCC3)cc3nccnc23)CC1` [Compound 443], with under 100 nM; and `CNc1ncnc(N[C@H]2CC[C@@H](Oc3cc(N4CCOCC4)cc4nccnc34)CC2)c1F` [Compound 469], with under 100 nM; and `CCOc1nccc(N[C@H]2CC[C@@H](Oc3cc(N4CCOCC4)cc4nccnc34)CC2)n1` [Compound 279], with under 100 nM.
With `CN1CCN(CCCOc2cnc(N[C@H]3CC[C@@H](Oc4cc(N5CCOCC5)cc5nccnc45)CC3)nc2)CC1` [Compound 508], the Ki is under 100 nM.
For the molecule `Cc1cnc(N[C@H]2CC[C@@H](Oc3cc(N4CCOCC4)cc4nccnc34)CC2)c(C)n1` [Compound 323], the Ki was under 100 nM.
Next, `CCCc1nc(C)cc(N[C@H]2CC[C@@H](Oc3cc(N4CCOCC4)cc4nccnc34)CC2)n1` [Compound 618]: under 100 nM; `O=C1Cc2cnc(N[C@H]3CC[C@@H](Oc4cc(N5CCOCC5)cc5nccnc45)CC3)nc2N1` [Compound 552]: under 100 nM; `Cc1ncc(N[C@H]2CC[C@@H](Oc3cc(N4CCOCC4)cc4nccnc34)CC2)nc1C` [Compound 314]: under 100 nM.
Next, `c1cnc2c(O[C@H]3CC[C@@H](Nc4ncc(OCCN5CCCCC5)cn4)CC3)cc(N3CCOCC3)cc2n1` [Compound 613]: under 100 nM; `CC(C)NC(=O)c1cc(N[C@H]2CC[C@@H](Oc3cc(N4CCOCC4)cc4nccnc34)CC2)ncn1` [Compound 643]: under 100 nM; `CC(C)(C)OC(=O)N1CCC(c2cnc(N[C@H]3CC[C@@H](Oc4cc(N5CCOCC5)cc5nccnc45)CC3)nc2)C1` (some centres unmarked) [Compound 570]: under 100 nM.
Next, `CN1CCC(c2ccnc(N[C@H]3CC[C@@H](Oc4cc(N5CCOCC5)cc5nccnc45)CC3)n2)CC1` [Compound 549]: under 100 nM.
For the molecule `O=C(N[C@H]1CC[C@@H](Oc2cc(N3CCOCC3)cc3nccnc23)CC1)N1CCCC1` [Compound 415], the Ki is under 100 nM.
Next, `CN1CCN(CCOc2cc(N[C@H]3CC[C@@H](Oc4cc(N5CCOCC5)cc5nccnc45)CC3)ncn2)CC1` [Compound 562]: under 100 nM; `Cc1nccc(N[C@H]2CC[C@@H](Oc3cc(N4CCOCC4)cc4nonc34)CC2)n1` [Compound 316]: under 100 nM.
Then `O=C(O)c1cccc(N[C@H]2CC[C@@H](Oc3cc(N4CCOCC4)cc4nccnc34)CC2)n1` [Compound 419], with under 100 nM.
Then `OCc1cnc2cc(N3CCOCC3)cc(O[C@H]3CC[C@@H](Nc4ncccn4)CC3)c2n1` [Compound 617], with under 100 nM.
